The values that follow come from patent US7223749B2, “Bicyclic heterocycles, pharmaceutical compositions containing these compounds, their use and processes for preparing them” (Boehringer Ingelheim International GmbH, priority 2003, dated 2007).

The structures appear in SMILES notation.

Broadly, the IC50 is the concentration that gives 50% inhibition.

The target of this assay is T1, human EGF-receptor kinase (Homo sapiens, UniProt P00533).
T1 construct: GST; made in house; host or cells: Sf9 insect cells (Baculovirus)
Put plainly: Inhibition of human EGF-receptor kinase (cytoplasmatic tyrosine kinase domain, GST fusion protein, pEY substrate, ELISA readout). Particulars: cytoplasmatic tyrosine kinase domain (Met 664 to Ala 1186) as GST fusion protein; poly(EY)/bio-pEY substrate; 30 minutes at ambient temperature. The assay is classed as biochemical. As to the method: The inhibition of human EGF-receptor kinase was determined using the cytoplasmatic tyrosine kinase domain (methionine 664 to alanine 1186, based on the sequence published in Nature 309 (1984), 418). To do this, the protein was expressed in Sf9 insect cells as a GST fusion protein using the Baculovirus expression system.
The enzyme activity was measured in the presence or absence of the test compounds in serial dilutions. The polymer pEY (4:1) produced by SIGMA was used as the substrate. Biotinylated pEY (bio-pEY) was added as the tracer substrate. Every 100 μl of reaction solution contained 10 μl of the inhibitor in 50% DMSO, 20 μl of the substrate solution (200 mM HEPES pH 7.4, 50 mM magnesium acetate, 2.5 mg/ml of poly(EY), 5 μg/ml of bio-pEY) and 20 μl of enzyme preparation. The enzyme reaction was started by the addition of 50 μl of a 100 μM ATP solution in 10 mM magnesium chloride. The dilution of the enzyme preparation was adjusted so that the incorporation of phosphate into the bio-pEY was linear in terms of time and quantity of enzyme. […]
The enzyme assays were carried out at ambient temperature over a period of 30 minutes and were ended by the addition of 50 μl of a stopping solution (250 mM EDTA in 20 mM HEPES pH 7.4). […] The extinction was measured at OD450 nm with an ELISA reader. All data points were measured three times. […]

T1 sequence (P00533 688-1210): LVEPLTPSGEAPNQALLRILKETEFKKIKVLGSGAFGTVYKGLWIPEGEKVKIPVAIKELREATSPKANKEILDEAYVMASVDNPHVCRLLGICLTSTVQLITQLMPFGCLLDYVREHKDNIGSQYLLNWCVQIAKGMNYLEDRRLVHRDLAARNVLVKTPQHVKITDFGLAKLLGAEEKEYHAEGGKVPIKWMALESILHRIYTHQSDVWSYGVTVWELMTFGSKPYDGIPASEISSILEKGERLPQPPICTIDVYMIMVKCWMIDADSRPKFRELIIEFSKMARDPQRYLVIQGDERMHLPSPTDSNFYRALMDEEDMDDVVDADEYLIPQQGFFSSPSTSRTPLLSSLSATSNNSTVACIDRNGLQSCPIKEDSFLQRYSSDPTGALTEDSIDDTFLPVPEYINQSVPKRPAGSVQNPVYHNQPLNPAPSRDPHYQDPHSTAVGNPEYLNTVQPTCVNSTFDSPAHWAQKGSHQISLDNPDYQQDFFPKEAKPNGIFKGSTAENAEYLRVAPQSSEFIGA

Compound `O=C(/C=C/CN1CCCOCC1)Nc1cc2c(Nc3ccc(F)c(Cl)c3)ncnc2cc1O[C@H]1CCOC1` [Example 1, 4-[(3-chloro-4-fluoro-phenyl)amino]-6-{[4-(homomorpholin-4-yl)-1-oxo-2-buten-1-yl]amino}-7-[(S)-(tetrahydrofuran-3-yl)oxy]-quinazoline] came in with an IC50 of 1.5 nM. In other words, the single-digit nanomolar range.
